Patent US9464106B2, “Oligonucleotides useful for detecting and analyzing nucleic acids of interest” (Exiqon A/S, priority 2002, dated 2016)
l = locked nucleic acid (LNA); [5mC] = 5-methylcytosine; d = 2'-deoxy (DNA)

Columns and labels:
human satellite-2 repeat = experiment: FISH on metaphase chromosomes with satellite-2 LNA/DNA mixmers; assay type: binding; conditions: for FISH signals on chromosomes: 6.4 pmoles Cy3 labeled probe, 30 minutes at 37° C., simultaneous denaturation at 75° C. for 5 minutes; for FISH signals without a denaturation step: overnight hybridization
Description: Chromosome preparations were made by standard methods from peripheral lymphocyte cultures of normal males. Slides were prepared 1-4 days prior to an experiment and treated with RNAse (10 μg/μl) at 37° C. for one hour before hybridization. The 23 bp human satellite-2 repeat sequence, [NT], was used to prepare the […] different content and sequence order of LNA modifications (Table 19). All […] labeled in the 5' end with either Cy3 or biotin. Biotin amidite was purchased from Applied Biosystems and Cy3 amidite was purchased from Amersham Bioscience. […] FISH was carried out as described by […], Guven […], Turner Z. (1998) Not para-, not peri-, but centric inversion of chromosome 12. […] (1); with the following modifications including: […] In addition the effect of denaturation was also tested. Two alternative hybridization mixtures were used: 50% formamide/2×SSC (pH 7.0)/10% dextran sulphate or 2×SSC (pH 7.0)/10% dextran sulphate. Hybridization times included 30 min, 1 hr, 2 hrs, 3 hrs and overnight. Hybridization temperatures included: 37° C., 55° C., 60° C. and 72° C. Post washing was either as for standard FISH (1), or with 50% formamide/2×SSC at 60° C., or without formamide. Hybridization signals with biotin labeled LNA substituted oligonucleotide probes were visualized indirectly using two layers of fluorescein-labeled avidin (Vector Labs) linked by a biotinylated anti-avidin molecule, which amplified the signal 8-64 times. The hybridization of Cy3 labeled molecules however, was visualized directly after a short washing procedure. […] The whole procedure was carried out in the dark. The signals were visualized using a Leica DMRB epifluorescence microscope equipped with a SenSys charge-coupled device camera (Photometrics, Tucson, Ariz.), and IPLAB Spectrum Quips FISH software (Applied Imaging international Ltd, Newcastle, UK) within two days after hybridization.

[1] = tested on: splice variant #1 and #2 transcripts spiked into C. elegans total RNA; experiment: Splice variant ratio detection with merged LNA block capture probes (Example 9); assay type: binding; conditions: signal ratio KU007/KU008, Cy5, normalized
[2] = tested on: 3′-ACGACCAC-5′ / 3′-ACGGCCAC-5′; experiment: Tm of LNA:DNA and DNA:DNA 8-mer duplexes, perfect match and single mismatch; assay type: binding; conditions: for ΔTm: perfect match minus single mismatch; for Tm of LNA:DNA Duplexes, Perfect match: target 3′-ACGACCAC-5′; for Tm of LNA:DNA Duplexes, Single mismatch: target 3′-ACGGCCAC-5′
Source text: It is often difficult to design probes and primers with the same range of melting temperature due to the variance in A/T and G/C content of the probing sites. Highly A/T rich regions typically give lower Tm values. Furthermore, if single mismatches are to be resolved, G/T mismatches are known to contribute little to ΔTm. As discussed above, the use of LNA is a desirable way to solve problems related to multiplex use of primers and probes. LNA offers the possibility to adjust Tm and increase the ΔTm at the same time. LNA increases Tm with 4-8° C./substitution and increases ΔTm in many cases (Table 9).

[3] = tested on: DNA oligonucleotides (HNFas128A-2, Gluc53as-A); experiment: Mismatch discrimination of chimeric LNA-DNA 12-mers containing LNA-A or LNA-D; assay type: binding
[4] = tested on: C. elegans genes relevant for general stress response and metabolism of toxic compounds; experiment: Expression profiling on C. elegans LNA tox oligoarray, beta-naphthoflavone and primaquine; assay type: in vivo, Caenorhabditis elegans; conditions: cRNA target; 24 hours
Description: For all cultures the sample is divided into two, and one half of the sample is used as the control, the other as the treated sample. Worm samples are harvested and sucrose cleaned by standard methods. For heat shock treatment: the heat shock sample is added to S-media preheated to 33° C. in a 1 L flask suspended in a water bath at 33° C., the other sample is added to a 1 L flask with S-media at 25° C. Both samples are shaken at approximately 100 rpm. for an hour. For β-naphthoflavone and primaquine treatment: 0.5 mL of 5 mg/mL β-naphthoflavone in DMSO or 0.5 mL of 20 mg/mL primaquine in DMSO were added to each 500 mL volume of S-media culture after 28 hours of growth from L1. At the same time 0.5 mL of DMSO was added to the control. Incubation was for 24 hours. Samples are then harvested by centrifugation at 3000×g suspended in RNALater™ (Ambion) and immediately frozen in liquid nitrogen.
First and second strand cDNA syntheses were made using the MessageAmp™ aRNA Kit (Ambion) according to suppliers' instructions. Five microgram of C. elegans total RNA was used as template for cDNA syntheses. Syntheses of fluorescent cRNA were made according to the MessageAmp™ aRNA Kit (Ambion) protocol with minor modifications. Cy3™-UTP or Cy5™-UTP (6 μl of a 5 mM solution Amersham Biosciences, USA) replaced biotin-CTP. The final concentration of ATP, CTP, and GTP was 7.5 mM whereas the concentration of UTP was reduced to 4.9 mM.
The arrays were hybridized overnight using the following protocol. The Cy3™ and Cy5™-labelled cDNA or cRNA samples were combined in one tube followed by addition of 3 μL 20×SSC (3×SSC final), 0.5 μL 1 M HEPES, pH 7.0 (25 mM final), 25 μg yeast tRNA (1.25 μg/μL final), 0.6 μL 10% SDS (0.3% final), and DEPC-treated water to 20 μL final volume. The labelled cDNA target sample was filtered in a Millipore 0.22 micron spin column according to the manufacturer's instructions (Millipore, USA), and the probe was denatured by incubating the reaction at 100° C. for 2 min. The sample was cooled at 20-25° C. for 5 min. by spinning at max speed in a microcentrifuge. A LifterSlip (Erie Scientific Company, USA) was carefully placed on top of the microarray spotted on Immobilizer™ MicroArray Slide and the hybridization mixture was applied to the array from the side. An aliquot of 30 μL of 3×SSC was added to both ends of the hybridization chamber, and the Immobilizer™ MicroArray Slide was placed in the hybridization chamber. The chamber was sealed watertight and incubated at 65° C. for 16-18 hours submerged in a water bath. After hybridisation, the slide was removed carefully from the hybridization chamber and washed using the following protocol. The Lifterslip coverslip was washed off in 2×SSC, pH 7.0 containing 0.1% SDS at room temperature for 1 min., followed by washing of the microarrays subsequently in 1.0×SSC, pH 7.0 at room temperature for 1 min, and then in 0.2×SSC, pH 7.0 at room temperature for 1 min. Finally the slides were washed for 5 seconds in 0.05×SSC, pH 7.0. The slides were then dried by centrifugation in a swinging bucket rotor at approximately 200 G for 2 min. The slide is now ready for scanning.
Following washing and drying, the slides were scanned using a ScanArray 4000XL scanner (Perkin-Elmer Life Sciences, USA), and the array data were processed using the GenePix™ Pro 4.0 software package (Axon, USA). The data in each image was normalized so that the ratio of means of all of the features is equal to 1.

## aTtccatTcgaTtccAttcgaTc (ATTCCATTCGATTCCATTCGATC; sugars from the 5' end dldddddldddldddldddddld, backbone and methylation of C not given here; 5' end labelled with Cy3 or biotin) [Dispersed LNA]
Human satellite-2 repeat
  FISH signals on chromosomes: signals on chromosomes 1 and 16 only

## caacactgcccagaggttcaatcGATmCmCgatgatcctaatgaaggcgccc (CAACACTGCCCAGAGGTTCAATCGATCCGATGATCCTAATGAAGGCGCCC; sugars from the 5' end d23 l5 d22, [5mC] at 27, 28, backbone not given here; further chemistry not fully specified) [gene78.m01INS3_50_block]
[1]
  Observed ratio (log2) with merged LNA block capture probes: 2.93

## caacactgcccagaggttcaatcGATGTgtgataggatcagtgttcaggg (CAACACTGCCCAGAGGTTCAATCGATGTGTGATAGGATCAGTGTTCAGGG; sugars from the 5' end d23 l5 d22, backbone not given here; further chemistry not fully specified) [gene78.m01INS4_50_block]
[1]
  Observed ratio (log2) with merged LNA block capture probes: −2.39

## gaaggcgaaggagactgctAATATcgataaatatgtgaaggaaatgcctg (as printed in the source, key not given here) [gene78.mINS403_50_block]
[1]
  Observed ratio (log2) with merged LNA block capture probes: −0.86

## 5′-TGCTGGTG-3′ [LNA 8-mer]
[2]
  ΔTm: 26 °C
  Tm of LNA:DNA Duplexes, Perfect match: 71 °C
  Tm of LNA:DNA Duplexes, Single mismatch: 45 °C

## 5′-TGCTGGTG-3′ [DNA 8-mer, reference compound]
[2]
  ΔTm: 10 °C
  Tm of LNA:DNA Duplexes, Perfect match: 35 °C
  Tm of LNA:DNA Duplexes, Single mismatch: 25 °C

## aTtcCatTcgAtTccAttCgaTc (ATTCCATTCGATTCCATTCGATC; sugars from the 5' end dlddlddlddldlddlddlddld, backbone and methylation of C not given here; 5' end labelled with Cy3 or biotin) [LNA-3]
Human satellite-2 repeat
  FISH signals on chromosomes: bright signals on chromosomes 1, 16 and 9

## aTTCcattcgATTccattcGATc (ATTCCATTCGATTCCATTCGATC; sugars from the 5' end dlllddddddlllddddddllld, backbone and methylation of C not given here; 5' end labelled with Cy3 or biotin) [LNA Blocks]
Human satellite-2 repeat
  FISH signals on chromosomes: smaller signals on chromosome 1

## tGtggGATGttg (TGTGGGATGTTG; chemistry not given here)
[3]; HNFas128A-2
  ΔTm between singly mismatched and perfect duplexes: −15.1 °C
[3]; HNFas128A-2, duplexes 2 μM
  Tm with caacaacccaca (singly mismatched): 45.9 °C
  Tm with caacatcccaca (perfect): 61.0 °C

## gtccagtatcgtccatcatAGTATcgataaatatgtgaaggaaatgcctg (as printed in the source, key not given here) [gene78.mINS303_50_block]
[1]
  Observed ratio (log2) with merged LNA block capture probes: 3.11

## cAmCtgGAmCtctt (CACTGGACTCTT; chemistry not given here)
[3]; Gluc53as-A
  ΔTm between singly mismatched and perfect duplexes: −10.9 °C
[3]; Gluc53as-A, duplexes 2 μM
  Tm with aagaggccagtg (singly mismatched): 50.6 °C
  Tm with aagagtccagtg (perfect): 61.5 °C

## COc1cc(NC(C)CCCN)c2ncccc2c1 (stereo not drawn) [Primaquine, primaquine]
[4]
  Log2 transformed fold of change, ABC_F57C12.4: −1.11
  Log2 transformed fold of change, CYP_F14F7.2: −1.24
  Log2 transformed fold of change, DC_W05G11.3: 1.16
  Log2 transformed fold of change, ER_26S: −1.09
  Log2 transformed fold of change, PPGB_F13D12.6: 1.08
  Log2 transformed fold of change, RPL_K11H12.2: 1.15

## O=c1cc(-c2ccccc2)oc2ccc3ccccc3c12 [beta-naphthoflavone, β-naphthoflavone]
[4]
  Log2 transformed fold of change, ABC_C34G6.4: 1.01
  Log2 transformed fold of change, CYP_C03G6.15: 2.35
  Log2 transformed fold of change, CYP_C06B3.3: 2.47
  Log2 transformed fold of change, CYP_C49G7.8: 2.40
  Log2 transformed fold of change, CYP_F14F7.2: −1.03
  Log2 transformed fold of change, CYP_K07C6.5: 2.68
  Log2 transformed fold of change, CYP_K09D9.2: 2.14
  Log2 transformed fold of change, ER_26S: −1.01
  Log2 transformed fold of change, HSP_C47E8.5: 1.17
  Log2 transformed fold of change, HSP_F26D10.3: 1.05
  Log2 transformed fold of change, HSP_F43D9.4: 1.27
  Log2 transformed fold of change, NAP_D2096.8: 1.14
  Log2 transformed fold of change, PPGB_F13D12.6: 1.21
  Log2 transformed fold of change, RAD_Y116A8C.133: 1.13
  Log2 transformed fold of change, RPL_K11H12.2: 1.42
  Log2 transformed fold of change, Ubi_F25B5.4: 1.37

## ATtCcAtTcGaTtCcAtTcGaTc (as printed in the source, key not given here) [LNA-2]
Human satellite-2 repeat
  FISH signals on chromosomes: signals on chromosomes 1, 16, 9 and 15
  FISH signals without a denaturation step: giving the best signals

## attccattcgattccattcgatc (ATTCCATTCGATTCCATTCGATC; chemistry not given here) [DNA oligo, reference compound]
Human satellite-2 repeat
  FISH signals on chromosomes: no signals on any of the chromosomes
  FISH signals without a denaturation step: no signals were obtained
